Results reported in PubChem BioAssay AID256 (DTP/NCI, 2004).
Where “and” joins values, the source holds several entries; their conditions need not be identical. Equal entries are not always repeated. Inconclusive results and toxic doses are left out.

Test system: CD2F1 mice, L1210 leukemia ip, survival T/C
Test: NCI In Vivo Anticancer Drug Screen. Data for tumor model L1210 Leukemia (intraperitoneal) in CD2F1 (CDF1) mice
Conditions: higher = longer survival
Outline: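 Tumor-bearing mice (transplanted tumor) were split into treated and vehicle control groups, and the measured endpoint of each treated group was divided by that of its vehicle controls.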

[1] = endpoint: mean survival time, dose: 100.0 mg/kg/injection, schedule: Q04DX002 (ip), vehicle: saline with Tween-80
[2] = endpoint: mean survival time, dose: 25.0 mg/kg/injection, schedule: Q04DX002 (ip), vehicle: saline with Tween-80
[3] = endpoint: mean survival time, dose: 50.0 mg/kg/injection, schedule: Q04DX002 (ip), vehicle: saline with Tween-80
[4] = endpoint: mean survival time, dose: 100.0 mg/kg/injection, schedule: Q01DX009 (ip), vehicle: saline with Tween-80
[5] = endpoint: mean survival time, dose: 200.0 mg/kg/injection, schedule: Q01DX009 (ip), vehicle: saline with Tween-80
[6] = endpoint: mean survival time, dose: 400.0 mg/kg/injection, schedule: Q01DX009 (ip), vehicle: saline with Tween-80
[7] = endpoint: mean survival time, dose: 200.0 mg/kg/injection, schedule: Q01DX001 (ip), vehicle: saline with Tween-80
[8] = endpoint: mean survival time, dose: 400.0 mg/kg/injection, schedule: Q01DX001 (ip), vehicle: saline with Tween-80

What does the source list for `COc1ccc2oc(-c3ccc(Cl)cc3)c(N3CCN(C)CC3)c2c1`?
T/C (endpoint: median survival time, dose: 15.0 mg/kg/injection, schedule: Q01DX005 (ip), vehicle: saline): 104 % of control; T/C (endpoint: median survival time, dose: 30.0 mg/kg/injection, schedule: Q01DX005 (ip), vehicle: saline): 103 % of control; T/C (endpoint: median survival time, dose: 60.0 mg/kg/injection, schedule: Q01DX005 (ip), vehicle: saline): 100 % of control; T/C (endpoint: median survival time, dose: 120.0 mg/kg/injection, schedule: Q01DX005 (ip), vehicle: saline): 107 % of control; T/C (endpoint: median survival time, dose: 240.0 mg/kg/injection, schedule: Q01DX005 (ip), vehicle: saline): 119 % of control

What does the source list for `O=C1OC(/C=C/c2ccccc2)=NC/1=C\c1ccccc1Cl`?
T/C [1]: 103 % of control; T/C (endpoint: mean survival time, dose: 200.0 mg/kg/injection, schedule: Q04DX002 (ip), vehicle: saline with Tween-80): 103 % of control; T/C (endpoint: mean survival time, dose: 400.0 mg/kg/injection, schedule: Q04DX002 (ip), vehicle: saline with Tween-80): 91 % of control

Which results are given for `O=C1C2C3CCC(C3)C2N1Cc1ccccc1` (stereo unspecified)?
T/C (endpoint: mean survival time, dose: 100.0 mg/kg/injection, schedule: Q04DX002 (ip), vehicle: other): 93 % of control; T/C (endpoint: mean survival time, dose: 200.0 mg/kg/injection, schedule: Q04DX002 (ip), vehicle: other): 96 % of control; T/C (endpoint: mean survival time, dose: 400.0 mg/kg/injection, schedule: Q04DX002 (ip), vehicle: other): 96 % of control

Which T/C [2] does the source give for `CC(=NC(c1ccccc1)c1ccccc1)N(C)C` here?
Its T/C is 102 % of control.

And the T/C [3]?
Its T/C is 98 % of control.

What about the T/C [1] of the same compound?
Its T/C is 102 % of control.

What does the source list for `CC(C)OC(=O)Nc1cc(C(F)(F)F)cc(C(F)(F)F)c1`?
T/C [4]: 113 % of control; T/C [5]: 94 % of control; T/C [6]: 92 % of control

With `CCOC(=O)c1ccc(N)cc1` as the compound, how does the T/C (endpoint: mean survival time, dose: 12.5 mg/kg/injection, schedule: Q01DX001 (ip), vehicle: saline with Tween-80) read?
Its T/C is 106 % of control.

And the T/C (endpoint: mean survival time, dose: 25.0 mg/kg/injection, schedule: Q01DX001 (ip), vehicle: saline with Tween-80)?
Its T/C is 100 % of control.

What about the T/C (endpoint: mean survival time, dose: 50.0 mg/kg/injection, schedule: Q01DX001 (ip), vehicle: saline with Tween-80) of the same compound?
The T/C was 100 % of control.

And the T/C (endpoint: mean survival time, dose: 75.0 mg/kg/injection, schedule: Q01DX001 (ip), vehicle: other)?
The T/C was 97 % of control.

And the T/C (endpoint: mean survival time, dose: 75.0 mg/kg/injection, schedule: Q04DX003 (ip), vehicle: saline with Tween-80)?
Its T/C is 93 % of control.

What about the T/C (endpoint: mean survival time, dose: 150.0 mg/kg/injection, schedule: Q01DX001 (ip), vehicle: other) of the same compound?
Its T/C is 103 % of control.

And the T/C (endpoint: mean survival time, dose: 150.0 mg/kg/injection, schedule: Q04DX003 (ip), vehicle: saline with Tween-80)?
The T/C was 100 % of control.

And the T/C [7]?
Its T/C is 226 % of control and 96 % of control.

And the T/C [8]?
The T/C was 100 % of control and 103 % of control.

Which results are given for `CCCCCOc1cc(C(C)=O)cc(OC)c1OC(=O)c1cc([N+](=O)[O-])cc([N+](=O)[O-])c1`?
T/C (endpoint: mean survival time, dose: 100.0 mg/kg/injection, schedule: Q01DX001 (ip), vehicle: saline with Tween-80): 112 % of control; T/C [7]: 90 % of control; T/C [8]: 93 % of control

For `O=C(O)c1ccccc1.[Cu+2]`, which T/C (endpoint: mean survival time, dose: 5.0 mg/kg/injection, schedule: Q01DX001 (ip), vehicle: saline) is on record?
Its T/C is 96 % of control.

And the T/C (endpoint: mean survival time, dose: 10.0 mg/kg/injection, schedule: Q01DX001 (ip), vehicle: saline)?
The T/C was 91 % of control.

What about the T/C (endpoint: mean survival time, dose: 20.0 mg/kg/injection, schedule: Q01DX001 (ip), vehicle: saline) of the same compound?
The T/C was 107 % of control.

And the T/C (endpoint: mean survival time, dose: 40.0 mg/kg/injection, schedule: Q01DX001 (ip), vehicle: saline)?
The T/C was 102 % of control.

And the T/C (endpoint: mean survival time, dose: 80.0 mg/kg/injection, schedule: Q01DX001 (ip), vehicle: saline)?
Its T/C is 107 % of control.

`Cc1ccc[n+](CCc2c[nH]c3ccccc23)c1` was tested. Which T/C (endpoint: mean survival time, dose: 12.5 mg/kg/injection, schedule: Q01DX009 (ip), vehicle: saline with Tween-80) did it give?
The T/C was 100 % of control.

What about the T/C (endpoint: mean survival time, dose: 25.0 mg/kg/injection, schedule: Q01DX009 (ip), vehicle: saline with Tween-80) of the same compound?
The T/C was 96 % of control.

And the T/C (endpoint: mean survival time, dose: 25.0 mg/kg/injection, schedule: Q04DX003 (ip), vehicle: saline with Tween-80)?
Its T/C is 98 % of control.

And the T/C (endpoint: mean survival time, dose: 50.0 mg/kg/injection, schedule: Q01DX009 (ip), vehicle: saline with Tween-80)?
The T/C was 101 % of control.

And the T/C (endpoint: mean survival time, dose: 50.0 mg/kg/injection, schedule: Q04DX003 (ip), vehicle: saline with Tween-80)?
Its T/C is 95 % of control.

For `ClC=P(c1ccccc1)(c1ccccc1)c1ccccc1`, which T/C [4] is on record?
Its T/C is 96 % of control.

And the T/C [5]?
The T/C was 92 % of control.

Which T/C [4] does the source give for `COc1cc(Cl)ccc1NC(=O)OCCOc1cc(OC)c(Cl)c(OC)c1` here?
The T/C was 101 % of control.

What about the T/C [5] of the same compound?
The T/C was 103 % of control.

What about the T/C [6] of the same compound?
The T/C was 101 % of control.

What does the source list for `Nc1ncnc2nc(-c3ccc(C[P+](c4ccccc4)(c4ccccc4)c4ccccc4)cc3)[nH]c12`?
T/C (endpoint: mean survival time, dose: 100.0 mg/kg/injection, schedule: Q04DX003 (ip), vehicle: saline with Tween-80): 101 % of control; T/C (endpoint: mean survival time, dose: 200.0 mg/kg/injection, schedule: Q04DX003 (ip), vehicle: saline with Tween-80): 95 % of control; T/C (endpoint: mean survival time, dose: 400.0 mg/kg/injection, schedule: Q04DX003 (ip), vehicle: saline with Tween-80): 101 % of control

What does the source list for `CCCC(=O)Nc1ncnc2c1ncn2C1OC2COP(=O)(O)OC2C1OC(=O)CCC` (stereo unspecified)?
T/C (endpoint: mean survival time, dose: 12.5 mg/kg/injection, schedule: Q01DX009 (ip), vehicle: saline): 109 % of control; T/C (endpoint: mean survival time, dose: 12.5 mg/kg/injection, schedule: Q01DX009 (ip), vehicle: suspension in saline): 98 % of control; T/C (endpoint: mean survival time, dose: 25.0 mg/kg/injection, schedule: Q01DX009 (ip), vehicle: saline): 97 % of control; T/C (endpoint: mean survival time, dose: 25.0 mg/kg/injection, schedule: Q01DX009 (ip), vehicle: suspension in saline): 100 % of control; T/C (endpoint: mean survival time, dose: 50.0 mg/kg/injection, schedule: Q01DX009 (ip), vehicle: saline): 98 % of control; T/C (endpoint: mean survival time, dose: 50.0 mg/kg/injection, schedule: Q01DX009 (ip), vehicle: suspension in saline): 100 % of control; T/C (endpoint: mean survival time, dose: 100.0 mg/kg/injection, schedule: Q01DX009 (ip), vehicle: saline): 101 % of control; T/C (endpoint: mean survival time, dose: 100.0 mg/kg/injection, schedule: Q01DX009 (ip), vehicle: suspension in saline): 105 % of control; T/C (endpoint: mean survival time, dose: 200.0 mg/kg/injection, schedule: Q01DX009 (ip), vehicle: saline): 98 % of control; T/C (endpoint: mean survival time, dose: 200.0 mg/kg/injection, schedule: Q01DX009 (ip), vehicle: suspension in saline): 94 % of control; T/C (endpoint: mean survival time, dose: 400.0 mg/kg/injection, schedule: Q01DX009 (ip), vehicle: saline): 103 % of control; T/C (endpoint: mean survival time, dose: 400.0 mg/kg/injection, schedule: Q01DX009 (ip), vehicle: suspension in saline): 115 % of control

With `C[N+](C)(C)C.[Cl-].[Cl-].[Cl][Sn]([Cl])[Cl].[Cl][Sn]([Cl])[Cl].[Ru+]` as the compound, how does the T/C [2] read?
The T/C was 107 % of control.

What about the T/C [3] of the same compound?
The T/C was 96 % of control.
